The NIST ThermoML archive (doi:10.1021/acs.jced.6b00640)

Test: xn = mol fraction of the nth substance listed
Conditions: 100 kPa, Liquid; for viscosity: Concentric cylinders viscometry; for mass density: Vibrating tube method

CCOC(=O)CCC(=O)OCC [diethyl butanedioate] + CCCC(=O)OCC
Conditions | mass density [kg/m3] | viscosity [mPa·s]
288.15 K, x2 = 0.0999 | 1032.25 | 2.784
288.15 K, x2 = 0.2 | 1018.97 | 2.407
288.15 K, x2 = 0.3003 | 1004.96 | 2.07
288.15 K, x2 = 0.3999 | 990.34 | 1.782
288.15 K, x2 = 0.5 | 974.86 | 1.537
288.15 K, x2 = 0.5997 | 958.7 | 1.334
288.15 K, x2 = 0.7 | 941.56 | 1.162
288.15 K, x2 = 0.7999 | 923.5 | 1.015
288.15 K, x2 = 0.8999 | 904.39 | 0.8744
293.15 K, x2 = 0.0999 | 1027.04 | 2.464
293.15 K, x2 = 0.2 | 1013.76 | 2.146
293.15 K, x2 = 0.3003 | 999.74 | 1.859
293.15 K, x2 = 0.3999 | 985.12 | 1.613
293.15 K, x2 = 0.5 | 969.64 | 1.402
293.15 K, x2 = 0.5997 | 953.46 | 1.225
293.15 K, x2 = 0.7 | 936.32 | 1.077
293.15 K, x2 = 0.7999 | 918.25 | 0.9435
293.15 K, x2 = 0.8999 | 899.13 | 0.8176
298.15 K, x2 = 0.0999 | 1021.84 | 2.202
298.15 K, x2 = 0.2 | 1008.55 | 1.932
298.15 K, x2 = 0.3003 | 994.54 | 1.684
298.15 K, x2 = 0.3999 | 979.9 | 1.471
298.15 K, x2 = 0.5 | 964.41 | 1.286
298.15 K, x2 = 0.5997 | 948.23 | 1.131
298.15 K, x2 = 0.7 | 931.08 | 1.002
298.15 K, x2 = 0.7999 | 913 | 0.8815
298.15 K, x2 = 0.8999 | 893.87 | 0.7679
303.15 K, x2 = 0.0999 | 1016.65 | 1.983
303.15 K, x2 = 0.2 | 1003.35 | 1.749
303.15 K, x2 = 0.3003 | 989.33 | 1.535
303.15 K, x2 = 0.3999 | 974.68 | 1.347
303.15 K, x2 = 0.5 | 959.18 | 1.185
303.15 K, x2 = 0.5997 | 942.99 | 1.048
303.15 K, x2 = 0.7 | 925.83 | 0.9351
303.15 K, x2 = 0.7999 | 907.74 | 0.8255
303.15 K, x2 = 0.8999 | 888.59 | 0.7228
308.15 K, x2 = 0.0999 | 1011.46 | 1.796
308.15 K, x2 = 0.2 | 998.15 | 1.593
308.15 K, x2 = 0.3003 | 984.12 | 1.405
308.15 K, x2 = 0.3999 | 969.46 | 1.239
308.15 K, x2 = 0.5 | 953.96 | 1.096
308.15 K, x2 = 0.5997 | 937.75 | 0.9742
308.15 K, x2 = 0.7 | 920.58 | 0.8745
308.15 K, x2 = 0.7999 | 902.47 | 0.7752
308.15 K, x2 = 0.8999 | 883.31 | 0.6811
313.15 K, x2 = 0.0999 | 1006.27 | 1.642
313.15 K, x2 = 0.2 | 992.95 | 1.465
313.15 K, x2 = 0.3003 | 978.91 | 1.297
313.15 K, x2 = 0.3999 | 964.25 | 1.149
313.15 K, x2 = 0.5 | 948.72 | 1.019
313.15 K, x2 = 0.5997 | 932.5 | 0.91
313.15 K, x2 = 0.7 | 915.31 | 0.8216
313.15 K, x2 = 0.7999 | 897.18 | 0.731
313.15 K, x2 = 0.8999 | 878 | 0.6451
318.15 K, x2 = 0.0999 | 1001.09 | 1.5
318.15 K, x2 = 0.2 | 987.76 | 1.341
318.15 K, x2 = 0.3003 | 973.7 | 1.193
318.15 K, x2 = 0.3999 | 959.02 | 1.061
318.15 K, x2 = 0.5 | 943.48 | 0.9464
318.15 K, x2 = 0.5997 | 927.25 | 0.8492
318.15 K, x2 = 0.7 | 910.04 | 0.7706
318.15 K, x2 = 0.7999 | 891.89 | 0.6883
318.15 K, x2 = 0.8999 | 872.69 | 0.6086
323.15 K, x2 = 0.0999 | 995.9 | 1.384
323.15 K, x2 = 0.2 | 982.56 | 1.245
323.15 K, x2 = 0.3003 | 968.49 | 1.113
323.15 K, x2 = 0.3999 | 953.79 | 0.9951
323.15 K, x2 = 0.5 | 938.24 | 0.8916
323.15 K, x2 = 0.5997 | 921.98 | 0.7992
323.15 K, x2 = 0.7 | 904.75 | 0.7302
323.15 K, x2 = 0.7999 | 886.58 | 0.6542
323.15 K, x2 = 0.8999 | 867.36 | 0.5785
